28 compounds from patent US10988477B2 (Merck Patent GmbH, priority 2018, dated 2021) can be followed below.

pIC50, pKi: −log10 of the molar value. Some results are limits rather than exact numbers.

One assay concerns the target GCN2 kinase (Homo sapiens, UniProt Q9P2K8). In words: GCN2 enzyme inhibition assay (Transcreener ADP2 fluorescence polarization). The following applies: compounds of Formula II; 280 μM ATP, 4 nM GCN2 kinase. Format: biochemical. Put shortly:
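Human GCN2 (4 nM) preincubated 10 min with compound (0–8 μM) and 200 μM (RS)7 peptide in Tris-HCl pH 7.5, NaCl, MgCl2, DTT. Reaction started with 280 μM ATP, run 1 h at 25 °C. ADP detected by Transcreener fluorescence polarization. IC50 and Ki(app) fitted by tight-binding algorithm.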
In general terms: Polarisation of emitted light reports the rotation of a fluorescent probe.

Assay [1] addresses intracellular GCN2 (phosphorylation of the GCN2 substrate eIF2α) (Homo sapiens, UniProt Q9P2K8). In words: GCN2 cellular inhibition assay (AlphaScreen SureFire P-eIF2α Ser51, borrelidin-treated U2OS cells). It is filed as cell-based. The following applies: compounds of Formula II; biomarker assay, phosphorylated eIF2α Ser51 in borrelidin-treated U2OS cells. Put shortly: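 U2OS cells adhered overnight, then treated with compounds (4-fold serial dilutions from 40 μM final) plus borrelidin 10 μM final for 1 h at 37 °C. Lysate eIF2α Ser51 phosphorylation measured by AlphaScreen SureFire. Percent inhibition calculated relative to borrelidin-only wells.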

Sequence of GCN2 kinase (Q9P2K8 whole entry): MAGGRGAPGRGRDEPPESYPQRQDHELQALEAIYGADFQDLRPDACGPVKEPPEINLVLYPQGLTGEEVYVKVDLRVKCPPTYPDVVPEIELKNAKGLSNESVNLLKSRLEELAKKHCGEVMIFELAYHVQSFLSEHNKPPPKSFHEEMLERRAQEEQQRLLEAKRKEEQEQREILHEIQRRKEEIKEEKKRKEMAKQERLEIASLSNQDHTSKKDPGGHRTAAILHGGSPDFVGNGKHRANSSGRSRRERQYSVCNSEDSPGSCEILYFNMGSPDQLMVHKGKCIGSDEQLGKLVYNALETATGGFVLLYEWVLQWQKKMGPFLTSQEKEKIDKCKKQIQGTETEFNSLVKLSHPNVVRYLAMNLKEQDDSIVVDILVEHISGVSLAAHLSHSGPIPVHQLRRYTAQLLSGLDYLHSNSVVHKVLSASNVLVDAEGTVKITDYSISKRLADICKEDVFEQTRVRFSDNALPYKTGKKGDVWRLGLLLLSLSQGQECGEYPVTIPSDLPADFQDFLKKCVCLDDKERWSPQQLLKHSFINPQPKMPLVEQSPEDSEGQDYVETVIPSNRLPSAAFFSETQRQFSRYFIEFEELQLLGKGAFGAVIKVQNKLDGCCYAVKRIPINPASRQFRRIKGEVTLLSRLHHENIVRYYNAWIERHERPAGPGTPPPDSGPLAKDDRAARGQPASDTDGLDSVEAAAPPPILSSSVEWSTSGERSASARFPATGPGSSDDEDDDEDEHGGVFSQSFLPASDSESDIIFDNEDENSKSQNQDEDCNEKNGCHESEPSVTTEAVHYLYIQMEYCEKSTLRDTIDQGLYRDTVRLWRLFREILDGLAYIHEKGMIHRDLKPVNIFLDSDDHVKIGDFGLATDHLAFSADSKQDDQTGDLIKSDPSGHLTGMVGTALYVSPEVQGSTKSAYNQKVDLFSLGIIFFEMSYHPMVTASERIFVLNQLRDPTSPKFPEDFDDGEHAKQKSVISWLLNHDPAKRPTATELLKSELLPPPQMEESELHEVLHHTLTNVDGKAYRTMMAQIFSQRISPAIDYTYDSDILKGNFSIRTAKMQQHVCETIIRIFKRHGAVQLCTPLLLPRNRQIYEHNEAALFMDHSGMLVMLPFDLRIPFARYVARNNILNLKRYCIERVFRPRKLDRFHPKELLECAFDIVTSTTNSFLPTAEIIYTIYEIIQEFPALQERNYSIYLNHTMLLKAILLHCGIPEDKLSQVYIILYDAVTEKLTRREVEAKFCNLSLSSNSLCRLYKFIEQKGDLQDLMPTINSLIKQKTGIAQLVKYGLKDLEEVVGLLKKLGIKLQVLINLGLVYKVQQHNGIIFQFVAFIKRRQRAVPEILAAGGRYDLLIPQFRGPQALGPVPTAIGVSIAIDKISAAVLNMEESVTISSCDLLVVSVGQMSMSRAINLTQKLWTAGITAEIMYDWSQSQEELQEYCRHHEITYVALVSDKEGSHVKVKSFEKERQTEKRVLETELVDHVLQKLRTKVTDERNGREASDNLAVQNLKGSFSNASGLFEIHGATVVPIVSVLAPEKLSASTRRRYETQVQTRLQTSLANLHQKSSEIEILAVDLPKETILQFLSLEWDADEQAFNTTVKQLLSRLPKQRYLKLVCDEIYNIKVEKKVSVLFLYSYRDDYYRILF
Sequence of intracellular GCN2 (phosphorylation of the GCN2 substrate eIF2α) (Q9P2K8 whole entry): as above

For the compound `CN1C(=O)CN(c2cc(-c3cnc4ccc(C(F)F)nn34)ncn2)C[C@H]1CNS(C)(=O)=O` [II-7, (S)—N-((4-(6-(6-(Difluoromethyl)imidazo[1,2-b]pyridazin-3-yl)pyrimidin-4-yl)-1-methyl-6-oxopiperazin-2-yl)methyl)methanesulfonamide], the pKi on GCN2 kinase is under 6.00. The compound also had a pIC50 in assay [1] of under 5.30.

Compound `CC1CC(CNS(C)(=O)=O)CN1c1cc(-c2cnc3ccc(C(F)F)nn23)ncn1` (centres unmarked) [II-8, N-((1-(6-(6-(Difluoromethyl)imidazo[1,2-b]pyridazin-3-yl)pyrimidin-4-yl)-5-methylpyrrolidin-3-yl)methyl)methanesulfonamide] gave a negative logarithm of the Ki (pKi) at GCN2 kinase of 6.00 to 8.00. Also, the negative-log IC50 (pIC50) in assay [1] was 5.30 to 6.30.

At GCN2 kinase, `OC[C@@H]1CN(c2cc(-c3cnc4ccc(C(F)F)nn34)ncn2)CCO1` [II-9, (S)-(4-(6-(6-(Difluoromethyl)imidazo[1,2-b]pyridazin-3-yl)pyrimidin-4-yl)morpholin-2-yl)methanol] had a pKi of 6.00 to 8.00. The pIC50 in assay [1] is 5.30 to 6.30.

As for `CS(C)(=O)=NC[C@@H]1CN(c2cc(-c3cnc4ccc(C(F)F)nn34)ncn2)CCO1` [II-10, [(2S)-4-[6-[6-(Difluoromethyl)imidazo[1,2-b]pyridazin-3-yl]pyrimidin-4-yl]morpholin-2-yl]methylimino-dimethyl-oxo-sulfane], the pKi on GCN2 kinase is 6.00 to 8.00. Besides, the pIC50 in assay [1] is under 5.30.

Compound `CS(=O)(=O)NCC1CN(c2cc(-c3cnc4ccc(C(F)F)nn34)ncn2)c2ccccc21` (centres unmarked) [II-11, N-((1-(6-(6-(Difluoromethyl)imidazo[1,2-b]pyridazin-3-yl)pyrimidin-4-yl)indolin-3-yl)methyl)methanesulfonamide] gave a pKi at GCN2 kinase of 6.00 to 8.00. Further, the pIC50 in assay [1] is under 5.30.

At GCN2 kinase, `CS(=O)(=O)NCC1CC(O)CN(c2cc(-c3cnc4ccc(C(F)F)nn34)ncn2)C1` (centres unmarked) [II-12, N-((1-(6-(6-(Difluoromethyl)imidazo[1,2-b]pyridazin-3-yl)pyrimidin-4-yl)-5-hydroxypiperidin-3-yl)methyl)methanesulfonamide] had a negative logarithm of the Ki (pKi) of 6.00 to 8.00. The pIC50 in assay [1] was 5.30 to 6.30.

For `CS(=O)(=O)NCC1CC(O)CN(c2cc(-c3cnc4ccc(C(F)F)nn34)ncn2)C1` (centres unmarked) [II-13, N-((1-(6-(6-(Difluoromethyl)imidazo[1,2-b]pyridazin-3-yl)pyrimidin-4-yl)-5-hydroxypiperidin-3-yl)methyl)methanesulfonamide], the pKi at GCN2 kinase was over 8.00. In assay [1], the negative-log IC50 (pIC50) is 5.30 to 6.30.

On to `CS(=O)(=O)N1CCCC(c2cc(-c3cnc4ccc(C(F)F)nn34)ncn2)CC1` (centres unmarked) [II-14, 6-(Difluoromethyl)-3-(6-(1-(methylsulfonyl)azepan-4-yl)pyrimidin-4-yl)imidazo[1,2-b]pyridazine], for which, at GCN2 kinase, the negative logarithm of the Ki (pKi) was 6.00 to 8.00. The pIC50 in assay [1] is under 5.30.

As to `O=C1CCN(c2cc(-c3cnc4ccc(C(F)F)nn34)ncn2)CCN1` [II-15, 1-(6-(6-(Difluoromethyl)imidazo[1,2-b]pyridazin-3-yl)pyrimidin-4-yl)-1,4-diazepan-5-one], the pKi on GCN2 kinase is 6.00 to 8.00. Besides, the pIC50 in assay [1] is under 5.30.

At GCN2 kinase, `NC(=O)C1CN(c2cc(-c3cnc4ccc(C(F)F)nn34)ncn2)c2ccccc21` (centres unmarked) [II-16, 1-(6-(6-(Difluoromethyl)imidazo[1,2-b]pyridazin-3-yl)pyrimidin-4-yl)indoline-3-carboxamide] had a negative logarithm of the Ki (pKi) of 6.00 to 8.00. In addition, the negative logarithm of the IC50 (pIC50) in assay [1] was under 5.30.

For `CS(=O)(=O)NCCC1CCN(c2cc(-c3cnc4ccc(C(F)F)nn34)ncn2)C1` (centres unmarked) [II-17, N-(2-(1-(6-(6-(Difluoromethyl)imidazo[1,2-b]pyridazin-3-yl)pyrimidin-4-yl)pyrrolidin-3-yl)ethyl)methanesulfonamide], the pKi on GCN2 kinase is 6.00 to 8.00. For the same compound, the negative-log IC50 (pIC50) in assay [1] was 5.30 to 6.30.

Turning to `CC1CN(c2cc(-c3cnc4ccc(C(F)F)nn34)ncn2)CC1CNS(C)(=O)=O` (centres unmarked) [II-18, N-((1-(6-(6-(Difluoromethyl)imidazo[1,2-b]pyridazin-3-yl)pyrimidin-4-yl)-4-methylpyrrolidin-3-yl)methyl)methanesulfonamide], the negative-log Ki (pKi) at GCN2 kinase is over 8.00. The pIC50 in assay [1] was over 6.30.

Take `CS(=O)(=O)C1CCCN(c2cc(-c3cnc4ccc(C(F)F)nn34)ncn2)C1` (centres unmarked) [II-19, 6-(Difluoromethyl)-3-(6-(3-(methylsulfonyl)piperidin-1-yl)pyrimidin-4-yl)imidazo[1,2-b]pyridazine]: on GCN2 kinase, the pKi is 6.00 to 8.00. In assay [1], this compound had a pIC50 of 5.30 to 6.30.

For the compound `FC(F)c1ccc2ncc(-c3cc(N4CCc5ccccc54)ncn3)n2n1` [II-20, 6-(Difluoromethyl)-3-(6-(indolin-1-yl)pyrimidin-4-yl)imidazo[1,2-b]pyridazine], the pKi at GCN2 kinase is 6.00 to 8.00. In assay [1], this compound showed a pIC50 of under 5.30.

Compound `CS(=O)(=O)N1CCCC(c2cc(-c3cnc4ccc(C(F)F)nn34)ncn2)C1` (centres unmarked) [II-21, 6-(Difluoromethyl)-3-(6-(1-(methylsulfonyl)piperidin-3-yl)pyrimidin-4-yl)imidazo[1,2-b]pyridazine] gave a pKi at GCN2 kinase of 6.00 to 8.00. Besides, the negative-log IC50 (pIC50) in assay [1] is under 5.30.

For `CS(=O)(=O)N1CCCN(c2cc(-c3cnc4ccc(C(F)F)nn34)ncn2)CC1` [II-22, 6-(Difluoromethyl)-3-(6-(4-(methylsulfonyl)-1,4-diazepan-1-yl)pyrimidin-4-yl)imidazo[1,2-b]pyridazine], on GCN2 kinase, the pKi is 6.00 to 8.00. Moreover, in assay [1], the negative logarithm of the IC50 (pIC50) was under 5.30.

`NS(=O)(=O)N1CCCN(c2cc(-c3cnc4ccc(C(F)F)nn34)ncn2)CC1` [II-24, 4-(6-(6-(Difluoromethyl)imidazo[1,2-b]pyridazin-3-yl)pyrimidin-4-yl)-1,4-diazepane-1-sulfonamide]: the pKi at GCN2 kinase is 6.00 to 8.00. The compound also gave a negative logarithm of the IC50 (pIC50) in assay [1] of under 5.30.

Regarding `CS(=O)(=O)NC[C@@H]1CN(c2cc(-c3cnc4ccc(C(F)F)nn34)ncn2)CC(=O)N1` [II-25, (S)—N-((4-(6-(6-(Difluoromethyl)imidazo[1,2-b]pyridazin-3-yl)pyrimidin-4-yl)-6-oxopiperazin-2-yl)methyl)methanesulfonamide], on GCN2 kinase, the pKi was 6.00 to 8.00. In assay [1], this compound had a negative-log IC50 (pIC50) of under 5.30.

Consider `CN=S(C)(=O)CC1CCCN(c2cc(-c3cnc4ccc(C(F)F)nn34)ncn2)C1` (centres unmarked) [II-26, [1-[6-[6-(Difluoromethyl)imidazo[1,2-b]pyridazin-3-yl]pyrimidin-4-yl]-3-piperidyl]methyl-methyl-methylimino-oxo-sulfane], for which the negative logarithm of the Ki (pKi) at GCN2 kinase is 6.00 to 8.00. In assay [1], this compound showed a negative logarithm of the IC50 (pIC50) of under 5.30.

The compound `Clc1ccc2ncc(-c3ccnc(-c4ccccc4)c3)n2n1` [II-27, 6-Chloro-3-(2-phenylpyridin-4-yl)imidazo[1,2-b]pyridazine] gave a negative-log Ki (pKi) on GCN2 kinase of 6.00 to 8.00. The negative-log IC50 (pIC50) in assay [1] is under 5.30.

`FC(F)c1ccc2ncc(-c3cc(N4Cc5ccncc5C4)ncn3)n2n1` [II-28, 3-(6-(1H-Pyrrolo[3,4-c]pyridin-2(3H)-yl)pyrimidin-4-yl)-6-(difluoromethyl)imidazo[1,2-b]pyridazine] gave a pKi on GCN2 kinase of 6.00 to 8.00. In assay [1], this compound gave a pIC50 of over 6.30.

Compound `FC(F)c1ccc2ncc(-c3cc(N4CCOC(Cn5cnnc5)C4)ncn3)n2n1` (centres unmarked) [II-29, 2-((4H-1,2,4-Triazol-4-yl)methyl)-4-(6-(6-(difluoromethyl)imidazo[1,2-b]pyridazin-3-yl)pyrimidin-4-yl)morpholine] showed a pKi at GCN2 kinase of 6.00 to 8.00. The compound also showed a pIC50 in assay [1] of under 5.30.

In turn, `N#CCC(=O)N1CCCC(c2cc(-c3cnc4ccc(C(F)F)nn34)ncn2)C1` (centres unmarked) [II-30, 3-(3-(6-(6-(Difluoromethyl)imidazo[1,2-b]pyridazin-3-yl)pyrimidin-4-yl)piperidin-1-yl)-3-oxopropanenitrile] showed a negative-log Ki (pKi) on GCN2 kinase of 6.00 to 8.00. In assay [1], this compound showed a negative-log IC50 (pIC50) of 5.30 to 6.30.

On to `CC1CN(c2cc(-c3cnc4ccc(C(F)F)nn34)ncn2)CC(CNS(C)(=O)=O)O1` (centres unmarked) [II-31, N-((4-(6-(6-(Difluoromethyl)imidazo[1,2-b]pyridazin-3-yl)pyrimidin-4-yl)-6-methylmorpholin-2-yl)methyl)methanesulfonamide], for which, at GCN2 kinase, the pKi was over 8.00. The compound also gave a negative-log IC50 (pIC50) in assay [1] of over 6.30.

For `CC1CN(c2cc(-c3cnc4ccc(C(F)F)nn34)ncn2)CC(CNS(C)(=O)=O)O1` (centres unmarked) [II-32, N-((4-(6-(6-(Difluoromethyl)imidazo[1,2-b]pyridazin-3-yl)pyrimidin-4-yl)-6-methylmorpholin-2-yl)methyl)methanesulfonamide], the pKi on GCN2 kinase is over 8.00. In assay [1], this compound gave a negative logarithm of the IC50 (pIC50) of over 6.30.

The compound `CC1CN(c2cc(-c3cnc4ccc(C(F)F)nn34)ncn2)CC(CNS(C)(=O)=O)O1` (centres unmarked) [II-33, N-((4-(6-(6-(Difluoromethyl)imidazo[1,2-b]pyridazin-3-yl)pyrimidin-4-yl)-6-methylmorpholin-2-yl)methyl)methanesulfonamide] showed a negative logarithm of the Ki (pKi) at GCN2 kinase of over 8.00. In assay [1], this compound showed a pIC50 of over 6.30.

As for `CS(=O)(=O)NC[C@@H]1CN(c2cc(-c3cnc4ccc(C(F)F)nn34)ncn2)CCO1` [II-34, (S)—N-((4-(6-(6-(Difluoromethyl)imidazo[1,2-b]pyridazin-3-yl)pyrimidin-4-yl)morpholin-2-yl)methyl)methanesulfonamide], on GCN2 kinase, the pKi was over 8.00. The compound further gave a negative-log IC50 (pIC50) in assay [1] of over 6.30.

As to `CC1CN(c2cc(-c3cnc4ccc(C(F)F)nn34)ncn2)CC(CNS(C)(=O)=O)C1(F)F` (centres unmarked) [II-35, N-((1-(6-(6-(Difluoromethyl)imidazo[1,2-b]pyridazin-3-yl)pyrimidin-4-yl)-4,4-difluoro-5-methylpiperidin-3-yl)methyl)methanesulfonamide], the pKi on GCN2 kinase is 6.00 to 8.00. Besides, the negative logarithm of the IC50 (pIC50) in assay [1] is 5.30 to 6.30.

Broadly, the pKi is the Ki on a negative log10 scale, so that one unit is a factor of ten. In general, pIC50 refers to the IC50 on a negative log10 scale, so that one unit is a factor of ten. High values mean a small IC50, low ones a large IC50.
